Source: patent US20120157452A1, “1H-PYRAZOLO[3,4-B] PYRIDINE COMPOUNDS FOR INHIBITING RAF KINASE” (GENENTECH, INC., priority 2009, published 2012)

Legend:
[1] = biological target: T1, V600E full-length B-Raf (Homo sapiens, UniProt P15056, V600E); test: B-Raf IC50 assay: incorporation of radio labeled phosphate from [γ-33P]ATP into FSBA-modified wild-type MEK; type: biochemical
T1 construct: made in house; host or cells: Sf9 insect cells (baculovirus)
Excerpt: Determining the activity of Raf in the sample is possible by a number of direct and indirect detection methods (US 2004/0082014). Activity of human recombinant B-Raf protein may be assessed in vitro by assay of the incorporation of radio labeled phosphate to recombinant MAP kinase (MEK), a known physiologic substrate of B-Raf, according to US 2004/0127496 and WO 03/022840. The activity/inhibition of V600E full-length B-Raf was estimated by measuring the incorporation of radio labeled phosphate from [γ-^33]ATP into FSBA-modified wild-type MEK (see Biological Example 1).
Activity of human recombinant B-Raf protein may be assessed in vitro by assay of the incorporation of radio labeled phosphate to recombinant MAP kinase (MEK), a known physiologic substrate of B-Raf, according to US 2004/0127496 and WO 03/022840. Catalytically active human recombinant B-Raf protein is obtained by purification from sf9 insect cells infected with a human B-Raf recombinant baculovirus expression vector.
The activity/inhibition of V600E full-length B-Raf was estimated by measuring the incorporation of radio labeled phosphate from [γ-^33]ATP into FSBA-modified wild-type MEK. The 30-μL, assay mixtures contained 25 mM Na Pipes, pH 7.2, 100 mM KCl, 10 mM MgCl2, 5 mM β-glycerophosphate, 100 μM Na Vanadate, 4 μM ATP, 500 nCi [γ-^33P]ATP, 1 μM FSBA-MEK and 20 nM V600E full-length B-Raf. Incubations were carried out at 22° C. in a Costar 3365 plate (Corning). Prior to the assay, the B-Raf and FSBA-MEK were preincubated together in assay buffer at 1.5× (20 μL of 30 nM and 1.5 μM, respectively) for 15 minutes, and the assay was initiated by the addition of 10 μL of […]. Following the 60-minute incubation, the assay mixtures were quenched by the addition of 100 μL of 25% TCA, the plate was mixed on a rotary shaker for 1 minute, and the product was captured on a Perkin-Elmer GF/B filter plate using a Tomtec Mach III Harvester. After sealing the bottom of the plate, 35 μL of Bio-Safe II (Research Products International) scintillation cocktail were added to each well and the plate was top-sealed and counted in a Topcount NXT (Packard).

[2] = system: LOX xenografts; test: Tumor Growth Inhibition (LOX) in nude mice with subcutaneous LOX xenografts; type: in vivo; settings: female nude mice, subcutaneous LOX xenograft, 30 mg/kg PO on days 1, 2, 3 and 4
Protocol: Female nude mice were implanted subcutaneously on the right flank with approximately 3.5×10^6 LOX cells in 100 μL PBS. Five to seven days later, tumors were measured and mice were randomized into groups of six with average tumor volume in each group of approximately 200 mm^3. Examples 30 and 42 were dissolved in 80% PEG400/20% ethanol before dosing, and administered PO at a volume of 5 mL/kg. Dosing was vehicle alone on days 1, 2, 3 and 4; and Examples 30 and 42 at 30 mg/kg on days 1, 2, 3 and 4 Animal weights and tumor volumes were measured using electronic calipers on […]. Tumor volume was calculated using the formula: volume=(width^2×length)/2. Each Example was run in a separate study with its own vehicle comparison.

[3] = 4 μM ATP, 60-minute incubation, representative data of multiple tests

T1 sequence (P15056 whole entry V600E): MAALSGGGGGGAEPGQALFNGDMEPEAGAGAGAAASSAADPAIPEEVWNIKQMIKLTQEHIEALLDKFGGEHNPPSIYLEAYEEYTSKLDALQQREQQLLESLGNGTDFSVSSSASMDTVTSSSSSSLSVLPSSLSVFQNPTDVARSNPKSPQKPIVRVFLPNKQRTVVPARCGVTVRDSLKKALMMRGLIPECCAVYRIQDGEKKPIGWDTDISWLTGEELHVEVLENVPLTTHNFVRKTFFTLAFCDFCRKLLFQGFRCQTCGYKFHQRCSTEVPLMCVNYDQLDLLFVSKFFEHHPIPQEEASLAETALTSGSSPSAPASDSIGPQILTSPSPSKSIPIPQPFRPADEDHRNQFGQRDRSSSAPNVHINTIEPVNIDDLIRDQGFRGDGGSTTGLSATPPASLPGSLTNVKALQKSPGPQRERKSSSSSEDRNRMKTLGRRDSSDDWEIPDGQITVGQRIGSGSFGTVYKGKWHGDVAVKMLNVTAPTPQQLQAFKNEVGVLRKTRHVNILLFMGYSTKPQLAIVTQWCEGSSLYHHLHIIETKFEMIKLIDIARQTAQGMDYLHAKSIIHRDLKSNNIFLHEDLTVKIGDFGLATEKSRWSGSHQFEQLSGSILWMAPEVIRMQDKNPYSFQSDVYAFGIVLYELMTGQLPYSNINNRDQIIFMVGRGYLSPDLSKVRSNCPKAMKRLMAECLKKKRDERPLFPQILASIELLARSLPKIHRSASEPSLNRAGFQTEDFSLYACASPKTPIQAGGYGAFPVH

IC50 [1, 3] | IC50 ([1]; bound stated) | Compound | Tumor Volume (mm^3) Day 1 [2] | Tumor Volume (mm^3) Day 3 [2] | Tumor Volume (mm^3) Day 5 [2]
0.74 nM | < 100 nM | COc1n[nH]c2ncc(NC(=O)c3c(Cl)ccc(OCc4ccc(Cl)cc4)c3F)cc12 [Example 30, 6-chloro-3-(4-chlorobenzyloxy)-2-fluoro-N-(3-methoxy-1H-pyrazolo[3,4-b]pyridin-5-yl)benzamide] | 221.68 mm^3 | 204.49 mm^3 | 168.94 mm^3
1.76 nM | < 100 nM | COc1n[nH]c2ncc(NC(=O)c3c(Cl)ccc(OCc4ccc(C(F)(F)F)cn4)c3F)cc12 [Example 42, 6-chloro-2-fluoro-N-(3-methoxy-1H-pyrazolo[3,4-b]pyridin-5-yl)-3-((5-(trifluoromethyl)pyridin-2-yl)methoxy)benzamide] | 191.22 mm^3 | 214.61 mm^3 | 161.55 mm^3
1.45 nM | < 100 nM | COc1n[nH]c2ncc(NC(=O)c3c(Cl)ccc(OCc4ccc(F)cc4F)c3F)cc12 [Example 62, 6-chloro-3-(2,4-difluorobenzyloxy)-2-fluoro-N-(3-methoxy-1H-pyrazolo[3,4-b]pyridin-5-yl)benzamide] | – | – | –
1.71 nM | < 100 nM | COc1n[nH]c2ncc(NC(=O)c3c(Cl)ccc(OCc4ccc5c(c4)OCO5)c3F)cc12 [Example 63, 3-(benzo[d][1,3]dioxol-5-ylmethoxy)-6-chloro-2-fluoro-N-(3-methoxy-1H-pyrazolo[3,4-b]pyridin-5-yl)benzamide] | – | – | –
9.29 nM | < 100 nM | COc1n[nH]c2ncc(NC(=O)c3c(Cl)ccc(OCc4cccc(CN5CCOCC5)c4)c3F)cc12 [Example 64, 6-chloro-2-fluoro-N-(3-methoxy-1H-pyrazolo[3,4-b]pyridin-5-yl)-3-(3-(morpholinomethyl)benzyloxy)benzamide] | – | – | –
0.63 nM | < 100 nM | COc1n[nH]c2ncc(NC(=O)c3c(Cl)ccc(OCc4ccc5c(c4)CCO5)c3F)cc12 [Example 65] | – | – | –
1.5 nM | < 100 nM | COc1n[nH]c2ncc(NC(=O)c3c(Cl)ccc(OCc4ccc(Cl)cc4F)c3F)cc12 [Example 66, 6-chloro-3-(4-chloro-2-fluorobenzyloxy)-2-fluoro-N-(3-methoxy-1H-pyrazolo[3,4-b]pyridin-5-yl)benzamide] | – | – | –
61 nM | < 100 nM | COc1n[nH]c2ncc(NC(=O)c3c(Cl)ccc(OC(C)c4ccccc4)c3F)cc12 (stereo not shown) [Example 67, 6-chloro-2-fluoro-N-(3-methoxy-1H-pyrazolo[3,4-b]pyridin-5-yl)-3-(1-phenylethoxy)benzamide] | – | – | –
658 nM | – | COc1n[nH]c2ncc(NC(=O)c3c(Cl)ccc(OCc4cncnc4)c3F)cc12 [Example 68, 6-chloro-2-fluoro-N-(3-methoxy-1H-pyrazolo[3,4-b]pyridin-5-yl)-3-(pyrimidin-5-ylmethoxy)benzamide] | – | – | –
1.66 nM | < 100 nM | COc1n[nH]c2ncc(NC(=O)c3c(Cl)ccc(OCc4ccc5ncccc5c4)c3F)cc12 [Example 69, 6-chloro-2-fluoro-N-(3-methoxy-1H-pyrazolo[3,4-b]pyridin-5-yl)-3-(quinolin-6-ylmethoxy)benzamide] | – | – | –
25.7 nM | < 100 nM | COc1n[nH]c2ncc(NC(=O)c3c(Cl)ccc(OCc4cnn(C)c4)c3F)cc12 [Example 70, 6-chloro-2-fluoro-N-(3-methoxy-1H-pyrazolo[3,4-b]pyridin-5-yl)-3-((1-methyl-1H-pyrazol-4-yl)methoxy)benzamide] | – | – | –
0.66 nM | < 100 nM | COc1n[nH]c2ncc(NC(=O)c3c(C)ccc(OCc4ccc(F)cc4)c3F)cc12 [Example 71, 2-fluoro-3-(4-fluorobenzyloxy)-N-(3-methoxy-1H-pyrazolo[3,4-b]pyridin-5-yl)-6-methylbenzamide] | – | – | –
0.4 nM | < 100 nM | COc1n[nH]c2ncc(NC(=O)c3c(C)ccc(OCc4ccc(Cl)cc4)c3F)cc12 [Example 72, 3-(4-chlorobenzyloxy)-2-fluoro-N-(3-methoxy-1H-pyrazolo[3,4-b]pyridin-5-yl)-6-methylbenzamide] | – | – | –
0.86 nM | < 100 nM | COc1n[nH]c2ncc(NC(=O)c3c(C)ccc(OCc4ccc(C(F)(F)F)cc4)c3F)cc12 [Example 73, 2-fluoro-N-(3-methoxy-1H-pyrazolo[3,4-b]pyridin-5-yl)-6-methyl-3-(4-(trifluoromethyl)benzyloxy)benzamide] | – | – | –
0.51 nM | < 100 nM | COc1n[nH]c2ncc(NC(=O)c3c(C)ccc(OCc4ccc(Cl)cn4)c3F)cc12 [Example 74, 3-((5-chloropyridin-2-yl)methoxy)-2-fluoro-N-(3-methoxy-1H-pyrazolo[3,4-b]pyridin-5-yl)-6-methylbenzamide] | – | – | –
139 nM | < 500 nM | COc1n[nH]c2ncc(NC(=O)c3c(Cl)ccc(OCc4ccc(CN5CCOCC5)cc4)c3F)cc12 [Example 75, 6-chloro-2-fluoro-N-(3-methoxy-1H-pyrazolo[3,4-b]pyridin-5-yl)-3-(4-(morpholinomethyl)benzyloxy)benzamide] | – | – | –
13 nM | < 100 nM | COc1n[nH]c2ncc(NC(=O)c3c(Cl)ccc(OCc4cccc5[nH]ccc45)c3F)cc12 [Example 76, 3-((1H-indol-4-yl)methoxy)-6-chloro-2-fluoro-N-(3-methoxy-1H-pyrazolo[3,4-b]pyridin-5-yl)benzamide] | – | – | –
0.56 nM | < 100 nM | COc1n[nH]c2ncc(NC(=O)c3c(Cl)ccc(OCc4ccc(C5CC5)cc4)c3F)cc12 [Example 77, 6-chloro-3-(4-cyclo-propylbenzyloxy)-2-fluoro-N-(3-methoxy-1H-pyrazolo[3,4-b]pyridin-5-yl)benzamide] | – | – | –
5.19 nM | < 100 nM | CC(=O)Nc1n[nH]c2ncc(NC(=O)c3c(Cl)ccc(OCc4ccccc4)c3F)cc12 [Example 78, N-(3-acetamido-1H-pyrazolo[3,4-b]pyridin-5-yl)-3-(benzyloxy)-6-chloro-2-fluorobenzamide] | – | – | –
